The text below walks through data of patent US20120302573A1, “METHODS OF INHIBITING PRO MATRIX METALLOPROTEINASE ACTIVATION” (priority 2011, published 2012).

Each structure is given as a SMILES string. Counter-ions that a name gives are not always drawn.

The target of assay [1] is T1, proMMP9(20-445;ΔFnII) (SEQ ID NO:6) (Homo sapiens, UniProt P14780, DEL216-390).
T1 construct: amino acid pairs including: 29-215/391-444, 67-215/391-444, and 20-215/391-445, respectively; start methionine (N); made in house; host or cells: E. coli BL21(DE3) RIL
T1 sequence (P14780 with tags, fused parts or gaps DEL216-390): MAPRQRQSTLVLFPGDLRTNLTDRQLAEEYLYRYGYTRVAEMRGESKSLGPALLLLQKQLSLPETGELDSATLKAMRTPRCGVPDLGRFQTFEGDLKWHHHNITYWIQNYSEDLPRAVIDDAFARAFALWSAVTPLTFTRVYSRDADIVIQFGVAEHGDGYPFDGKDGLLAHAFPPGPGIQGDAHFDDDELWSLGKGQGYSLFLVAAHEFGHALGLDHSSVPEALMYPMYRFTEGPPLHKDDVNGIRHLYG
The assay is described as follows: ThermoFluor binding assay with proMMP9(20-445;ΔFnII). The procedure:
(§1) The experiments were carried out using instruments available from Johnson & Johnson Pharmaceutical Research & Development, LLC. TF dye used in all experiments was […] (1,8-ANS) (Invitrogen: A-47).
(§2) Columns 12 and 24 were used as DMSO reference and contained no compound. […] Following compound dispense, protein and dye solutions were added to achieve the final assay volume of 3 μL.
(§3) Assay plates were robotically loaded onto a thermostatically controlled PCR-type thermal block and then heated from 40 to 90° C. at a ramp-rate of 1° C./min for all experiments. Fluorescence was measured by continuous illumination with UV light (Hamamatsu LC6) supplied via fiber optics and filtered through a band-pass filter (380-400 nm; >6 OD cutoff). Fluorescence emission of the entire 384-well plate was detected by measuring light intensity using a CCD camera (Sensys, Roper Scientific) filtered to detect 500±25 nm, resulting in simultaneous and independent readings of all 384 wells.
(§4) Thermodynamic parameters necessary for fitting compound binding for each proMMP were estimated by differential scanning calorimetry (DSC) and from ThermoFluor® data. The heat capacity of unfolding for each protein was estimated from the molecular weight and from ThermoFluor® dosing data.
The protein sample preparations included a desalting buffer exchange step via a PD-10 gravity column (GE Healthcare).

Assay [2] deals with T2, proMMP9(67-444;ΔFnII) (SEQ ID NO:5) (Homo sapiens, UniProt P14780, DEL216-390).
T2 construct: amino acid pairs including: 29-215/391-444, 67-215/391-444, and 20-215/391-445, respectively; start methionine (N); made in house; host or cells: E. coli BL21(DE3) RIL
T2 sequence (P14780 with tags, fused parts or gaps DEL216-390): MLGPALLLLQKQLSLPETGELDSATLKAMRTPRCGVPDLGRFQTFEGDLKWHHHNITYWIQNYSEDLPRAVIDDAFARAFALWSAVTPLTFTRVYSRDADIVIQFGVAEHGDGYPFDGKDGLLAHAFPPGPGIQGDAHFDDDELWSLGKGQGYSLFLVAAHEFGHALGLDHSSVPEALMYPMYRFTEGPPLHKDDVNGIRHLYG
The assay is described as follows: ThermoFluor binding assay with proMMP9(67-444;ΔFnII). The procedure: as §1, §2, §3, §4
The protein sample preparations had to include a desalting buffer exchange step via a PD-10 gravity column (GE Healthcare).

The target in assay [3] is T3, full-length proMMP9(1-707) activation by catalytic MMP3 (Homo sapiens, UniProt P14780, R574P). The assay is described as follows: proMMP9/MMP3 P126 Activation Assay. It is filed as biochemical. Set-up: made in house; host or cells: E. coli (MMP3). Conditions: proMMP9 from HEK293 cells.
T3 sequence (P14780 20-707 R574P): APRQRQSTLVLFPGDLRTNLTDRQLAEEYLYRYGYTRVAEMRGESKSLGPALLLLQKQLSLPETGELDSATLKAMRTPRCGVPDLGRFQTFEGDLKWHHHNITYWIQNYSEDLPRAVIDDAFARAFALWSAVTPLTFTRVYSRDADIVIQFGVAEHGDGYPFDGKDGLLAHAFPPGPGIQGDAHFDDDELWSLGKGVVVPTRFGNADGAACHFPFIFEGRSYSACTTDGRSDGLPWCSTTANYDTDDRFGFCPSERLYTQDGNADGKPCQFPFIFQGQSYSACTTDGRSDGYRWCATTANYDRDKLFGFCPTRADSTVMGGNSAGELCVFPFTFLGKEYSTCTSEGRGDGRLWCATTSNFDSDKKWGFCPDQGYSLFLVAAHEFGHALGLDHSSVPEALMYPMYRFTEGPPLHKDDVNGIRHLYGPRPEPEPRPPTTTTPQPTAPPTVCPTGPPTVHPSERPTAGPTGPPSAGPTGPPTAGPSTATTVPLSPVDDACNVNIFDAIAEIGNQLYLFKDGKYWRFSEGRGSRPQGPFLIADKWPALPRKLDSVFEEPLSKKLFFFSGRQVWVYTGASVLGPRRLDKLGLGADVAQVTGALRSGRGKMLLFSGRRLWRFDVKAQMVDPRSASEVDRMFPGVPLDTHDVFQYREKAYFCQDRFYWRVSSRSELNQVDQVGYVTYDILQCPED
Protocol: The assay buffer employed was 50 mM Hepes, pH 7.5, 10 mM CaCl2, 0.05% Brij-35. DMSO was included at a final concentration of 2%, arising from the test compound addition. […] The reaction volume was 50 μL. […] Initial velocities were plotted by use of a four-parameter logistics equation (GraphPad Prism® software) for determination of IC50.
In assay [4] the target is T4, proMMP13(1-268) (SEQ ID NO:7) (Homo sapiens, UniProt P45452).
T4 construct: 6x-histidine tag (C); made in house; host or cells: HEK293
The assay is described as follows: ThermoFluor binding assay with proMMP13(1-268). As to the method: The ThermoFluor® (TF) assay is a 384-well plate-based binding assay that measures thermal stability of proteins (Biomol Screen 2001, 6, 429-40; Biochemistry 2005, 44, 5258-66). The experiments were carried out using instruments available from Johnson & Johnson Pharmaceutical Research & Development, LLC. TF dye used in all experiments was […] (1,8-ANS) (Invitrogen: A-47).
Compounds were arranged in a pre-dispensed plate (Greiner Bio-one: 781280), wherein compounds were serially diluted in 100% DMSO across 11 columns within a series. Columns 12 and 24 were used as DMSO reference and contained no compound. For multiple compound concentration-response experiments, the compound aliquots ([…]) were robotically predispensed directly into black 384-well polypropylene PCR microplates (Abgene: TF-0384/k) using a Cartesian Hummingbird liquid handler (DigiLab, Holliston, Mass.). Following compound dispense, protein and dye solutions were added to achieve the final assay volume of 3 μL. The assay solutions were overlayed with 1 μL of silicone oil (Fluka, type DC 200: 85411) to prevent evaporation.
as §3, with “wells. A single image with 20-sec exposure time was collected at each temperature, and the sum of the pixel intensity in a given area of the assay plate was recorded vs temperature and fit to standard equations to yield the Tm (J Biomol Screen 2001, 6, 429-40).” for “wells.”
as §4
The proMMP13(1-268) (SEQ ID NO:7) protein sample preparations included a desalting buffer exchange step via a PD-10 gravity column (GE Healthcare). The desalting buffer exchange was performed prior to diluting the protein to the final assay concentration of 3.5 μM. The concentration of proMMP13(1-268) (SEQ ID NO:7) was estimated spectrophotometrically based on a calculated extinction coefficient of ε280=37000 M^−1 cm^−1, a calculated molecular weight of 30.8 kDa, and calculated pI of 5.33. ThermoFluor® reference conditions were defined as follows: 100 μg/mL proMMP13(1-268) (SEQ ID NO:7), 25 μM 1,8-ANS, pH 7.0 Buffer (50 mM HEPES pH 7.0, 100 mM NaCl, 0.001% Tween-20, 2.5 mM MgCl2, 300 μM CaCl2). The thermodynamic parameters for proMMP13(1-268) (SEQ ID NO:7) are as follows: Tm (° C.)=67 (+/−0.1), ΔUH(Tm) (cal mol^−1)=107000(+/−5000), ΔUS(Tm) (cal mol^−1 K^−1)=318, ΔUCp (cal mol^−1 K^−1)=2600.

The target in assay [5] is T3, full-length proMMP9(1-707) activation by catalytic MMP3. The assay is described as follows: ProMMP9/MMP3 DQ Gelatin Activation Assay.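 Also: readout is fluorescence of quenched fluorescein gelatin cut by activated MMP9, 30 min activation at 37 °C, inhibition relative to DMSO-only controls with EDTA as blank.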 It is filed as biochemical. To be noted: proMMP9 from COS-1 cells; read-out: ProMMP9/MMP3 DQ gel, IC50. Set-up: made in house; host or cells: COS-1 (proMMP9); E. coli (MMP3).
Protocol: Compounds were assessed for inhibition of proMMP9 activation by catalytic MMP3 using a quenched fluorescein gelatin substrate (DQ gelatin, Invitrogen D12054) that fluoresces upon cleavage by activated MMP9. The assay buffer employed was 50 mM Hepes, pH 7.5, 10 mM CaCl2, 0.05% Brij-35. DMSO was included at a final concentration of 0.2%, arising from the test compound addition. […] Test compounds in DMSO were diluted 250-fold in assay buffer at 4× the final concentration. The reaction volume was 12 μL, and all reactions were conducted in triplicate. […] The plate was sealed and incubated for 30 min at 37° C. […] Immediately following the 30 min incubation, 4 μL of 40 μg/ml DQ gelatin substrate was added (freshly diluted in assay buffer), and incubated for 10 min at room temperature. […] Reactivity of residual MMP3 towards DQ gelatin was minimal under these conditions. Percent inhibition of test compounds were determined from suitable positive (DMSO only in assay buffer) and negative (EDTA added prior to reaction initiation) controls. Plots of % inhibition vs. test compound concentration were fit to a four-parameter logistics equation (GraphPad Prism® software) for determination of IC50.

One may read the Kd as a measure of binding affinity in units of concentration. A low value points to tighter binding. Regarding `Cc1nc(N)sc1-c1csc(Nc2ccccc2OC(C)C)n1` [Example 3, N^2-(2-Isopropoxy-phenyl)-4′-methyl-[4,5′]bithiazolyl-2,2′-diamine.TFA], the Kd turned out to be 3.81 µM in assay [1] and 1.15 µM in assay [2]. Moreover, in assay [3], the IC50 turned out to be 2000 nM.
Regarding `CC(C)Oc1ccccc1Nc1nc(-c2cccnc2)cs1` [Example 15, (2-Isopropoxy-phenyl)-(4-pyridin-3-yl-thiazol-2-yl)-amine], the equilibrium dissociation constant (Kd) is greater than 95 µM in assay [1] and 43.3 µM in assay [2]. Further, the IC50 in assay [3] was found to be 2500 nM.
Take `COc1ccc(F)cc1Nc1nc(-c2sc(NC(C)=O)nc2C)c(Br)s1` [Example 18, N-[5-Bromo-2-(5-fluoro-2-methoxy-phenylamino)-4′-methyl-[4,5′]bithiazolyl-2′-yl]-acetamide.TFA]: the figures for the Kd in assay [1] and in assay [2] were 2.89 µM and 0.376 µM, respectively. Further, in assay [3], the IC50 worked out at 2600 nM.
On to `COc1ccc(Br)cc1Nc1nc(-c2sc(N)nc2C)cs1` [Example 20, N^2-(5-Bromo-2-methoxy-phenyl)-4′-methyl-[4,5′]bithiazolyl-2,2′-diamine.TFA], for which the figures for the Kd in assay [1] and in assay [2] were 2.15 µM and 0.414 µM, respectively. The compound further registered an IC50 in assay [3] of 3300 nM.
`COc1ccc(Br)cc1Nc1nc(-c2sc(C)nc2C)cs1` [Example 27, (5-Bromo-2-methoxy-phenyl)-(2′,4′-dimethyl-[4,5′]bithiazolyl-2-yl)-amine.TFA] yielded a Kd in assay [1] of 49.9 µM. Also, the IC50 in assay [3] amounted to 3100 nM.
`COc1ccc(F)cc1Nc1nc(-c2ccc3c(c2)ncn3C)cs1` [Example 41, (5-Fluoro-2-methoxy-phenyl)-[4-(1-methyl-1H-benzoimidazol-5-yl)-thiazol-2-yl]-amine] registered a Kd in assay [1] of 1.94 µM. The IC50 in assay [3] stood at 1900 nM.
As to `COc1ccccc1Nc1nc(-c2ccncc2)cs1` [Example 60, (2-Methoxy-phenyl)-(4-pyridin-4-yl-thiazol-2-yl)-amine], the Kd in assay [1] is 16.8 µM; in assay [2] it was 11.3 µM; in assay [4], 44.4 µM. Besides, the IC50 in assay [5] was 5.5 µM.
The like results for `COc1ccc(OC)c(Nc2nc(-c3sc(NC(C)=O)nc3C)cs2)c1` [Example 61, N-[2-(2,5-Dimethoxy-phenylamino)-4′-methyl-[4,5′]bithiazolyl-2′-yl]-acetamide] were, in that order, 5.07 µM, 1.06 µM, 21 µM and 1.6 µM.
On to `CCc1ccccc1Nc1nc(-c2sc(NC(C)=O)nc2C)cs1` [Example 62, N-[2-(2-Ethyl-phenylamino)-4′-methyl-[4,5′]bithiazolyl-2′-yl]-acetamide], for which the Kd in assay [1] turned out to be 8.29 µM; in assay [2] it was 2.46 µM; in assay [4], 47.2 µM. Besides, the IC50 in assay [5] was 3.4 µM.
Turning to `COc1ccccc1Nc1nc(-c2sc(C)nc2C)cs1` [Example 64, (2′-4′-Dimethyl-[4,5′]bithiazolyl-2-yl)-(2-methoxy-phenyl)-amine], the Kd in assay [1] is 47.5 µM; in assay [2], 45.3 µM; in assay [4] it was greater than 95 µM. Further, the IC50 in assay [5] is 2.1 µM.
Turning to `COc1ccc(OC)c(Nc2nc(-c3c[nH]c4ncccc34)cs2)c1` [Example 73, (2,5-Dimethoxy-phenyl)-[4-(1H-pyrrolo[2,3-b]pyridin-3-yl)-thiazol-2-yl]-amine], the dissociation constant (Kd) in assay [1] stood at 25.5 µM; in assay [2], 15.9 µM; in assay [4] it was 18 µM. Also, in assay [5], the IC50 is 17.9 µM.
For `CCOc1ccccc1Nc1nc(-c2cn3ccccc3n2)cs1` [Example 74, (2-Ethoxy-phenyl)-(4-imidazo[1,2-a]pyridin-2-yl-thiazol-2-yl)-amine], the dissociation constant Kd was 7.89 µM in assay [1], 66.1 µM in assay [2] and greater than 95 µM in assay [4]. For the same compound, the IC50 in assay [5] came out at 21.1 µM.
Take `COc1ccccc1Nc1nc(-c2cnc3cnccn23)cs1` [Example 75, (4-Imidazo[1,2-a]pyrazin-3-yl-thiazol-2-yl)-(2-methoxy-phenyl)-amine]: the Kd in assay [1] was 17.9 µM; in assay [2] it was 10.1 µM; in assay [4] it was 28.9 µM. Further, the IC50 in assay [5] turned out to be 17.9 µM.
With `COc1ccccc1Nc1nc(-c2c[nH]c3ncccc23)cs1` [Example 76, (2-Methoxy-phenyl)-[4-(1H-pyrrolo[2,3-b]pyridin-3-yl)-thiazol-2-yl]-amine], the Kd in assay [1] was 27 µM; in assay [2] it was 10.8 µM; in assay [4], 57.1 µM. For the same compound, the IC50 in assay [5] was 16.3 µM.
Regarding `COc1ccc(F)cc1Nc1nc(-c2sc(C)nc2C)c(C)s1` [Example 77, N-(5-fluoro-2-methoxyphenyl)-2′,4′,5-trimethyl-[4,5′-bithiazol]-2-amine.HBr], the equilibrium dissociation constant (Kd) in assay [1] was greater than 77 µM; in assay [2], 20.6 µM. Further, the IC50 in assay [3] turned out to be 3800 nM.
Turning to `COc1ccc(F)cc1Nc1nc(-c2sc(C3CCN(C)CC3)nc2C)cs1` [Example 78, N-(5-fluoro-2-methoxyphenyl)-4′-methyl-2′-(1-methylpiperidin-4-yl)-[4,5′-bithiazol]-2-amine.TFA], the Kd came out at 0.879 µM in assay [1] and 0.146 µM in assay [2]. Further, the IC50 in assay [3] stood at 130 nM.
`COc1ccc(F)cc1Nc1nc(-c2ccc(N3CCN(C4CC4)CC3)nc2)cs1` [Example 79, 4-(6-(4-Cyclopropylpiperazin-1-yl)pyridin-3-yl)-N-(5-fluoro-2-methoxyphenyl)thiazol-2-amine.TFA]: the results for the Kd in assay [1] and in assay [2] were 21.4 µM and 3.93 µM, respectively. Besides, in assay [3], the IC50 is 1000 nM.
